The source of these data is patent publication US20250270549A1, “MSI2 AS A THERAPEUTIC TARGET FOR THE TREATMENT OF MYOTONIC DYSTROPHY” (UNIVERSITAT DE VALÈNCIA, priority 2021, published 2025).

l = locked nucleic acid (LNA); d = 2'-deoxy (DNA)

For one data set, the system named is LC3. As to the kind of experiment: LC3 immunostaining and LC3 puncta quantification. Format: cell-based, human. The settings on record: DM1 TDMs; compared to scrambled ASO at the same concentration. Here is the method:
For LC3B immunodetection, cells were differentiated in MDM for 7 days (3×10^5 cells/well in 24-well plates). After 48 h of gapmer treatment, cells were fixed with 4% PFA in PBS for 15 min at room temperature. After fixation, cells were permeabilized with methanol 100% for 15 min at −20° C. and blocked with blocking buffer (PBS 1×, 0.5% BSA, 1% goat serum) for 1 h at room temperature. Cells were incubated overnight (O/N) with rabbit anti-LC3B (1:200, ab51520; Abcam, Cambridge, UK) diluted in blocking buffer. Then, samples were incubated with goat anti-rabbit IgG (H+L) Alexa Fluor Plus 594 (1:200; Invitrogen, Carlsbad, CA, USA) for 2 h. Between antibodies, cells were washed three times with PBS 1×. Finally, cells were washed three times with PBS and mounted in Vectashield (Vector Laboratories, London, UK) with […] DAPI.
Image analyses of LC3-stained myotubes were performed using the Ifdotmeter software following the authors' recommendations (see Rodríguez-Arribas, M., et al. (2016). IFDOTMETER: A New Software Application for Automated Immunofluorescence Analysis. J. Lab. Autom. 21, 246-259). Briefly, the quantification of the number of LC3 dots or LC3 puncta was performed with 15-20 images per condition. Total LC3 dots per image were normalized relative to the total area corresponding to all myotubes observed in each image. Myotube area was measured by using ImageJ software. Data were expressed as the number of LC3 dots/mm2.

Another data set has as its system TGFBR1. As to the kind of experiment: TGFBR1 expression by RT-qPCR in MD1 muscle cells. Format: cell-based, H. sapiens. The settings on record: DM1 TDMs; 150 nM. Here is the method:
(§1) TDMs were cultured as previously described^1. After 4 days in differentiation medium (MDM), cells were transfected with a combination of two siRNAs (SEQ ID NO: 40 and 43) targeting MSI2 transcripts (final concentration 100 nM) using Lipofectamine RNAiMAX transfection reagent (Invitrogen, Madrid, Spain)) following the manufacturer's recommendations. After 48 h, the medium containing the siRNAs was replaced by fresh MDM. 24 h later, cells were collected. As a control, the same protocol was performed using 100 nM of a siRNA with a scrambled sequence (Cat #4390843 for negative control). Gapmers against MSI2 and agomiR-107 were transfected following the same protocol using two different concentrations, 30 and 150 nM in the case of Gapmers and 100 and 300 nM in the case of agomiR-107. To treat cells with the small molecule Ro-08-2750 (Tocris Cat. No. 2272, Bristol, UK)), cells were cultured as before. Briefly, after 96 h in MDM, the medium was supplemented with Ro-08-2750 at a final concentration of 10 μM (0.8% DMSO) or with the vehicle, DMSO 0.8%, for 48 h. Then cells were collected for further analyses.
(§2) All the procedures were performed as previously described^1.
A general note: In qPCR the cycle at which signal appears reflects the starting amount.

In data set [1] the test system is ATG3, ATG4A, ATG5, ATG7, and mTOR. As to the kind of experiment: qRT-PCR of autophagy pathway genes in DM1 TDMs. The settings on record: highest concentration (150 nM). In kind it is cell-based, human. Here is the method:
(§3) FIG. 10. Inhibition of MSI2 expression in DM1 TDMs restores impaired autophagic markers. (A) qRT-PCR quantification of the relative expression of the indicated genes involved in different autophagy pathway steps in DM1 and control (green dashed lines) myotubes. Statistical analyses were performed comparing DM1 versus controls. (B) Analyses of the expression of genes quantified in (A) in DM1 myotubes treated with ASOs targeting MSI2 transcripts. All comparisons for the statistical analyses were performed using their corresponding scrambled control (dashed lines). […] Quantification and representative western blots of (C) ATG4A, (D) ATG7, (E) AKT-P/AKT total protein levels, and (F) LC3-II/LC3-I ratio in DM1 TDMs treated with MSI2 targeting or scrambled ASOs at the indicated concentrations. Green dashed lines indicate protein expression levels in control myotubes. β-actin was used as an endogenous control to normalize protein levels (n=3). The bar graphs show mean #SEM. * p<0.05, ** p<0.01, *** p<0.001, and **** p<0.0001 according to Student's t test.
as §2

A further data set deals with MSI2 transcripts. As to the kind of experiment: MSI2 relative expression (transcripts) by RT-qPCR in muscle cells. Format: cell-based, H. sapiens. Here is the method: as §1, §2
In a further data set the test system is MD1 TDMs. Nature of the data set: Desmin immunostaining: myogenic fusion index and myotube diameter. In kind it is cell-based, human. The settings on record: MD1 myotubes; 30 nM. Here is the method: as §1
Desmin immunostaining and fusion index and diameter determination were performed as previously described^3. For MSI2 immunodetection, 3.5×10^4 fibroblasts/well were seeded in 24 well plates. After 7 days of differentiation into myotubes, cells were fixed with 4% paraformaldehyde (PFA) for 15 min. After 3 washes with PBS-T (0.1%×-TritonX-100 in PBS 1×) cells were blocked (PBS-T, 1% BSA, 5% normal goat serum) for 1 h and incubated with rabbit anti-MSI2 antibody (1:100, Abcam, EP1305Y, Cambridge, UK) in blocking buffer for 48 h at 4° C. After three washes with PBS-T, cells were incubated for 1 h with goat anti-rabbit-FITC IgG (1:200, Sigma-Aldrich, St. Louis, Missouri) in blocking buffer. Finally, cells were washed thrice with PBS 1× and were counterstained and mounted with VECTASHIELD® mounting medium containing DAPI (Vector Laboratories, London, UK) to detect the nuclei. Images were taken in a confocal microscope LSM800 (Zeiss) at 400× magnification.

In a further data set the test system is AKT. Nature of the data set: AKT pathway activation: phospho (Ser473)-AKT-to-total-AKT ratio. In kind it is cell-based, human. To be noted: DM1 TDMs; 150 nM. Here is the method:
as §3
Protein extraction, quantification and immunodetection were performed as previously described^1,3. Specifically, MSI2 detections were performed by incubating membranes overnight with a rabbit anti-MSI2 antibody (1:1000, Abcam, EP1305Y, Cambridge, UK). […] Quantification was performed using ImageJ software (NIH).

A further data set has as its system miR-7. As to the kind of experiment: miR-7 quantification by RT-qPCR in MD1 cells. Format: cell-based, human. To be noted: MD1 cells, * significant. Here is the method:
as §1, §2

Description for Human CNT myotubes: (A) Cell growth inhibition assay by MTS method. Human CNT myotubes were transfected with increasing concentrations of ASO1, 2 and 3 (n=4). […] Vertical dashed lines indicate used concentrations in the following experiments: 30 and 150 nM.
Non-DM control (Ctrl) cells (CNT) were aliquoted in 96-well plates with 1.0×10^5 cells per well. After 24 h, cells were transfected as described with different ASOs (concentrations ranging from 1 nM to 1 μM) or treated with Ro-08-2750 (Tocris Bioscience, Bristol, UK) at concentrations ranging from 0.0195 up to 80 μM (in 1:2 serial dilutions). Cell viability was measured as previously described^3.

With “ASO1: gapmer antisense oligonucleotide against MSI2 transcript, SEQ ID NO: 76 (38), 5′ +T+G+A*C*T*T*C*T*T*T*C*G*G+C+T+G 3′, LNA ends, phosphorothioate linkages (antisense TGACTTCTTTCGGCTG; sugars from the 5' end l3 d10 l3, backbone and methylation of C not given here; further chemistry not fully specified)”, the “LC3 dots per unit of area” value in the data set with LC3 is on record as “significant decrease”. Also, the TC10 in the data set on Human CNT myotubes turned out to be 31.2 nM. Besides, the TGFBR1 expression result with TGFBR1 was “behaved the opposite”. In addition, the ATG5 expression entry in data set [1] is listed as “significantly reduced”. Also, the “MSI2 relative expression upon transfection” value in the data set on MSI2 transcripts (DM1 TDMs, 30 and 150 nM) is “significant reduction”. Besides, the “reduction of MSI2 transcript” value in the data set with MSI2 transcripts (MD1-derived myoblasts, 150 nM) is given as 27%. For the same substance, the “fusion capacity (fusion index and diameter)” value in the data set on MD1 TDMs was “significant rescue”. The AKT-P/AKT ratio entry in the data set on AKT is on record as “robust increase”. Also, the “FC miR-7 expression respect to MD1, Low concentration” value in the data set with miR-7 (ASO 30 nM, Ro 08-2750 10 μM, siRNA 100 nM) amounted to 1.49 fold. In addition, the “FC miR-7 expression respect to MD1, High concentration” value in the data set on miR-7 (ASO 150 nM) is given as 1.72* fold.
